These results are taken from PMC10610505, “Synthesis and Biological Evaluation of Some New 3-Aryl-2-thioxo-2,3-dihydroquinazolin-4(1H)-ones and 3-Aryl-2-(benzylthio)quinazolin-4(3H)-ones as Antioxidants; COX-2, LDHA, α-Glucosidase and α-Amylase Inhibitors; and Anti-Colon Carcinoma and Apoptosis-Inducing Agents” (Pharmaceuticals, 2023).

Molecules are shown by their SMILES. Read-outs that look alike come from different tables or passages of the source.

For one data set, the target named is T1, COX-2 (Homo sapiens, UniProt P35354).
T1 construct: purchased Cayman Chemical Company 701080
T1 sequence (P35354 18-604): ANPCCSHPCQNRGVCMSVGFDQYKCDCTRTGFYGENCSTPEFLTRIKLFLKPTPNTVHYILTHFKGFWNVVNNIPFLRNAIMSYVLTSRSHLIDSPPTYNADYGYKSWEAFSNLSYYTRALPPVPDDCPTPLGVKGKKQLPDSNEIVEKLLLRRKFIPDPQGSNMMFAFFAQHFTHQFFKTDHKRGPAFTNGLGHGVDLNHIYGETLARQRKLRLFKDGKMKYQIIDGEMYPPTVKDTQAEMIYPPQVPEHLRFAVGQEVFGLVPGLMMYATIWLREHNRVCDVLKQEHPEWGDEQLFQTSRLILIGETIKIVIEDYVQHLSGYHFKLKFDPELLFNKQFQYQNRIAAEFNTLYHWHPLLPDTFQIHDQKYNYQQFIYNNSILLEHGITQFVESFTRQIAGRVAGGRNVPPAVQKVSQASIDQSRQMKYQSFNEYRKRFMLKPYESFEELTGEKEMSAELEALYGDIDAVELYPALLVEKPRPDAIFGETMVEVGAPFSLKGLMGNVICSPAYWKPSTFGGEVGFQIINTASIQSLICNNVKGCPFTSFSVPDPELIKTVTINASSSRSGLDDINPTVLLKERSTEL
Nature of the data set: COX-2 inhibitory screening assay (Cayman kit). It is filed as biochemical. The note with it: for Increase in COX-2 inhibitory efficiency by duplicating the concentration: % inhibition at 0.200 mg/mL divided by % inhibition at 0.100 mg/mL; for inhibition at 100 µg/mL: at 0.100 mg/mL; for inhibition at 100 µg/mL / inhibition at 200 µg/mL: read-out: COX-2 mean % inhibition ± SD; for inhibition at 200 µg/mL: at 0.200 mg/mL. In short, it runs like this:
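Human COX-2 with heme preincubated with compound 10 min at 37° C in Tris-HCl pH 8.0 with phenol and EDTA, then arachidonic acid added for 2 min at 37° C. PGF2α, formed by stannous chloride reduction, quantified by enzyme immunoassay at 410 nm; % inhibition versus untreated control.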

Data set [1] in a line: Viability assay (LDH release), HUVEC. It is filed as cell-based, human. The note with it: human. The procedure:
The samples were diluted in Dulbecco’s Modified Eagle’s Medium, consisting of 10% fetal bovine serum (FBS), added to cells grown and cultured for 24 h in a 5% CO2-humidified incubator at 37 °C. Thereafter, the activity of lactate dehydrogenase released from damaged cells was determined in the collected supernatant aliquots using an ELISA end-point assay (Benchmark Plus, Bio-Rad, CA, USA); 0.1% Triton X-100 in the assay medium and the assay medium only were used as the positive and negative controls, respectively. Cell viability was expressed as a relative percentage of the OD values (at 550 nm) for compound-treated cells (final concentration of 200 µg /mL) and the negative control, which was shown as the mean % ± SD (n = 3). The results of the viability assays for the potential cytotoxic candidates were compared with the % of viable human umbilical vein endothelial cells (HUVEC) at the same concentration. These cells were grown in Dulbecco’s Modified Eagle’s Medium (PAN-Biotech; Barcelona, Spain) containing 10% FBS (Sigma Aldrich; St. Quentin-Fallavier, France), 2 mM Glutamine (Sigma Aldrich), 100 units/mL penicillin and […] streptomycin (Life Technologies; Paisley, UK).

A further data set relates to LoVo carcinoma cells. Nature of the data set: Annexin-V-FITC/PI flow cytometry, LoVo. It is filed as cell-based, human. The note with it: 50 µg/mL, 48 h; for Early apoptotic cells (Annexin-V positive, PI negative): lower right quadrant; for Late apoptotic cells (Annexin-V and PI positive): upper right quadrant. The procedure: In order to examine the effect of compounds 3a and 3f on the apoptosis of HCT-116 and LoVo carcinoma cells, the Annexin-V-FITC probe was used and flow cytometry analyses were performed (Figure 7).
The percentages of the early apoptotic cells (Annexin-V positive and propidium iodide, PI negative) and late apoptotic cells (both Annexin-V and PI positive) were then calculated. Annexin V-PI staining was also performed to distinguish apoptotic and necrotic cell deaths.
The distribution of early and late apoptotic cells after treatment with compounds 3a and 3f was carried out using an Annexin V-FITC Apoptosis Detection Kit (BioVisionResearch Products—USA). HCT-116 and LoVo carcinoma cells were seeded in 60 mm^2 culture dishes and treated with the vehicles DMSO, and compounds 3a and 3f (50 µg/mL) for 48 h. Cells were then harvested, washed twice with PBS and resuspended in an Annexin-V binding buffer (BioVisionResearch Products—USA). Finally, the cells were stained with Annexin V-FITC and propidium iodide (PI). The fluorescent intensity of the stained cancer cells was determined using an FITC signal detector (usually FL1) and PI staining with the phycoerythrin emission signal detector (through quadrant statistics for necrotic and apoptotic cell populations).

Another data set concerns the target α-amylase. As to the kind of experiment: In vitro α-amylase (AA) inhibition assay. The note with it: mean ± SD of three replicates; for IC50: read-out: Mean IC50 α-Amylase (AA).

Protocol for α-amylase: Then, 180 µL of Labtest (the amylase substrate) was added and the samples were incubated for 8 min, followed by measuring the first reaction at 620 nm to obtain (X1). Afterwards, the reaction mixture was incubated for an additional 5 min at 37 °C; then, the second reaction was measured to obtain the final reading (X2). […] The results were expressed as IC50 µg/mL (as well as µM) and were determined from the standard curves.

For `O=c1c2cc(Cl)ccc2[nH]c(=S)n1-c1cccc(C(F)(F)F)c1` [Compound 3a, 6-Chloro-2-thioxo-3-(3-trifluoromethyl-phenyl)-2,3-dihydro-1H-quinazolin-4-one], on COX-2, the “Increase in COX-2 inhibitory efficiency by duplicating the concentration” value is given as 1.70 fold, the inhibition at 100 µg/mL came to 57 ± 2.83% and the inhibition at 200 µg/mL came out at 97 ± 1.34%. This compound also had an IC50 against COX-2 (mean ± SD of three replicates) of 281 µM. The viability at 200 µg/mL in data set [1] (human umbilical vein endothelial cells (HUVEC), 200 µg/mL, read-out: Mean % of viable cells ± SD, HUVEC) came to 97 ± 2.65%. For the same compound, in the data set with LoVo carcinoma cells, the “Early apoptotic cells (Annexin-V positive, PI negative)” value turned out to be 18.29%; the “Late apoptotic cells (Annexin-V and PI positive)” value was 11.01%. For the same compound, on α-amylase, the “Mean IC50 α-Amylase (AA)” value is recorded as 124.333 ± 4.042 µg/mL and the IC50 was 349 µM.

For the compound `O=c1c2cc(Cl)ccc2[nH]c(=S)n1-c1ccc([N+](=O)[O-])cc1` [Compound 3f, 6-Chloro-3-(4-nitro-phenyl)-2-thioxo-2,3-dihydro-1H-quinazolin-4-one], on COX-2, the “Increase in COX-2 inhibitory efficiency by duplicating the concentration” value is listed as 2.34 fold, the inhibition at 100 µg/mL was 11.4 ± 0.778% and the inhibition at 200 µg/mL amounted to 26.8 ± 3.89%. The viability at 200 µg/mL in data set [1] was determined as 99.67 ± 0.577%. In the data set on LoVo carcinoma cells, the “Early apoptotic cells (Annexin-V positive, PI negative)” value is listed as 12.97%; the “Late apoptotic cells (Annexin-V and PI positive)” value was 4.66%. Besides, on α-amylase, the “Mean IC50 α-Amylase (AA)” value is 111.667 ± 3.512 µg/mL and the IC50 was 335 µM.
